Reference: patent US8097590B2, “α-MSH-antagonist dipeptide conjugates” (Centre National de la Recherche Scientifique (CNRS), priority 2004, dated 2012)
Where two headings read alike, the source gives them in different places. Non-standard residues stand in square brackets, D forms with d. Residues, ends and D or L forms follow the SMILES beside them. No end group written: not given here. *: point of attachment. Palmitoyl = CCCCCCCCCCCCCCCC(=O)*

Assays:
human MC1 receptor = biological target: T1, human MC1 receptor (Homo sapiens, UniProt Q01726); assay: Inhibition of AMPc production induced by α-MSH on M4Be cells; format: cell-based; settings: M4Be human cell line, 5×10^−8 M α-MSH
T1 construct: endogenous in cells; host or cells: M4Be human melanoma (melanocyte) cell line
Experimental: Five Palm-dipeptides according to this invention were introduced at different concentrations and each measurement was made in triplicate. Two or three series of experiments were made.
The M4Be human cell line (Jacubovich et al. Cancer Immunol. Immunother. 1979, 7, 59-64), a melanocytes cell line capable of producing melanines, was used in this study to determine the values of CI50.
The cells were maintained in the Dulbecco modified Eagle medium with 10% of foetal calf serum (FCS), 1 mM of glutamine, 100 U/ml of penicillin and 10^−4 g/ml of streptomycine.
All cell lines were maintained at 37° C. in an atmosphere with 5% of CO2 and cell culture media were renewed every two days. The cells were applied in contact with a plate with 96 wells (Nunc, Roskilde) 24 hours before contact of dipeptides according to the invention.
Cells applied in contact the day before with 8×10^4 cells per well were put in the presence of one of the five dipeptide conjugates according to the invention at various concentrations for 10 minutes at 37° C. with 5×10^−8 M of α-MSH. After this time, the lysis of the cells was made and the AMPc content was measured using a connection test box by competition (RPN225, Amersham Pharmacia Biotech). Each independent experiment was carried out at least twice in triplicate.
The peptidic activity was determined with reference to the AMPc content synthesized by untreated cells and the production of AMPc induced by α-MSH alone. The curves were adjusted and the values of CI50 were determined with non-linear regression in the GraphPad Prism (GraphPad software, San Diego, Calif., United States).

receptor MC1 [1] = settings: Proc. Natl. Acad. Sci. (1995), 92, result in words; cited from earlier work
receptor MC1 [2] = settings: Jayawickreme et al., J. Biol. Chem. 1994; cited from earlier work
[3] = 10 minutes at 37° C., experiment 1, read-out: CI50 (μM) exp1
[4] = 10 minutes at 37° C., experiment 2, read-out: CI50 (μM) exp2
[5] = average of the experiments, read-out: CI50 (μM) aver.
[6] = 10 minutes at 37° C., experiment 3, read-out: CI50 (μM) exp3

T1 sequence (Q01726 whole entry): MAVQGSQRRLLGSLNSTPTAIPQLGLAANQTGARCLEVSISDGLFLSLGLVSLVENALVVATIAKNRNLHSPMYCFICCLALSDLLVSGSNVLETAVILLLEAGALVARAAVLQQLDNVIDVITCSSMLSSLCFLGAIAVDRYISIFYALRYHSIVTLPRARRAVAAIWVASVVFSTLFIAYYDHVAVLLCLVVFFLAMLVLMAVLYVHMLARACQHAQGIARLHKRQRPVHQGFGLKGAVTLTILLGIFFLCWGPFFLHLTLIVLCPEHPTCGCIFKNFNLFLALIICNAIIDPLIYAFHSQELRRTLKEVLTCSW

| Molecule | IC50 (human MC1 receptor; [3]) [µM] | IC50 (human MC1 receptor; [4]) [µM] | IC50 (human MC1 receptor; [5]) [µM] | IC50 (human MC1 receptor; [6]) [µM] | antagonist activity (receptor MC1 [1]) | Ki (receptor MC1 [2]) [µM] |
| --- | --- | --- | --- | --- | --- | --- |
| CCCCCCCCCCCCCCCC(=O)N[C@@H](CCCNC(=N)N)C(=O)N[C@@H](Cc1c[nH]cn1)C(N)=O [Compound 39, Palm-Arg-His-NH2] (Palmitoyl-Arg-His-NH2) | 29 | 4.6 | 13 | 4.4 |  |  |
| [dW]-Arg-Leu-NH2 |  |  |  |  | has an antagonist activity |  |
| H-MP[dF]R[dW]FKPV-NH2 [153 N-6] |  |  |  |  |  | 0.011 |

Second part, led by results:

| IC50 (human MC1 receptor; [3]) [µM] | IC50 (human MC1 receptor; [4]) [µM] | IC50 (human MC1 receptor; [5]) [µM] | IC50 (human MC1 receptor; [6]) [µM] | Molecule | antagonist activity (receptor MC1 [1]) | Ki (receptor MC1 [2]) [µM] |
| --- | --- | --- | --- | --- | --- | --- |
| 36 | 17 | 26 |  | CCCCCCCCCCCCCCCC(=O)N[C@@H](CCCNC(=N)N)C(=O)N[C@@H](CCCNC(=N)N)C(N)=O [Compound 41, Palm-Arg-Arg-NH2] (Palmitoyl-Arg-Arg-NH2) |  |  |
| 20 | 26 | 23 |  | CCCCCCCCCCCCCCCC(=O)N[C@@H](CCCNC(=N)N)C(=O)N1CCC[C@H]1C(N)=O [Compound 49, Palm-Arg-Pro-NH2] (Palmitoyl-Arg-Pro-NH2) |  |  |
| 45 | 5.5 | 17 | 1 | CCCCCCCCCCCCCCCC(=O)N[C@@H](CO)C(=O)N1CCC[C@H]1C(N)=O [Compound 125, Palm-Ser-Pro-NH2] (Palmitoyl-Ser-Pro-NH2) |  |  |
| 48 | 9.6 | 29 |  | CCCCCCCCCCCCCCCC(=O)N[C@@H](CCCNC(=N)N)C(=O)N[C@@H](CCCCN)C(N)=O [Compound 50, Palm-Arg-Lys-NH2] (Palmitoyl-Arg-Lys-NH2) |  |  |
